# Assay results taken from patent US20050019438A1, “Hop extracts and use thereof in the production of a medicament having estrogenic properties” (priority 2001, published 2005).
# Test system: Ishikawa cell line (Var. I) of human endometrial adenocarcinoma
# Assay: Ishikawa cell alkaline phosphatase assay of estrogenic activity
# Assay type: cell-based
# Excerpt: The in vitro assay used was developed by Littlefield in 1990 (Endocrinology 1990, 127, p. 2757-2762).
# The variant of the cell line used is sensitive to estrogens, to which it responds not through a proliferative activity, but through an activity which stimulates an enzyme, alkaline phosphatase. This assay provides, in a sensitive and specific manner, information on the estrogenic activity since, among steroids, only the estrogens respond to this assay and succeed in stimulating the enzyme activity. The estrogenic activity can also be triggered by non-steroidal substances having a “estrogen-like” effect, such as phytoestrogens. The estrogenic responses obtained below are blocked by the reference anti-estrogen brought into contact, which indicates an estrogen receptor-mediated activity.
# The model is an Ishikawa cell line (Var. I) of human endometrial adenocarcinoma (established by Nishida: Acta Obstet Gynaec Jap 1985, 37: 1103-1111).
# Specifically, alkaline phosphatase hydrolyzes p-nitrophenol phosphate to p-nitrophenol, which gives a colored reaction.
# The assay consists in measuring the absorbance at 405 nm after incubation for 72 h.
# Two controls were used: • positive control=17β-estradiol, • negative control=antiestrogen ICI182, 780 from Zeneca. […]
Structure (SMILES),"blocking of the estrogenic responses by the anti-estrogen (reference anti-estrogen brought into contact, indicates estrogen receptor-mediated activity)","estrogenic activity / response (in words) (alkaline phosphatase activation in Ishikawa cells, absorbance at 405 nm after 72 h)"
C[C@]12CC[C@@H]3c4ccc(O)cc4C[C@@H](CCCCCCCCC[S+]([O-])CCCC(F)(F)C(F)(F)F)[C@H]3[C@@H]1CC[C@@H]2O (stereo partly drawn) [reference anti-estrogen],blocked,
"C[C@]12CC[C@@H]3c4ccc(O)cc4CC[C@H]3[C@@H]1CC[C@@H]2O [17β-Estradiol, 17β-estradiol]",,expected dose-effect relationship
